What was measured:
Assay type in all cases: cell-based
[1] = biological target: T1, hTRPC6 (Homo sapiens, UniProt Q9Y210); experiment: fura-2 intracellular calcium assay, OAG-activated hTRPC6 transfected in HEK […] cells
T1 construct: gene TRPC6
T1 sequence (Q9Y210 1-931): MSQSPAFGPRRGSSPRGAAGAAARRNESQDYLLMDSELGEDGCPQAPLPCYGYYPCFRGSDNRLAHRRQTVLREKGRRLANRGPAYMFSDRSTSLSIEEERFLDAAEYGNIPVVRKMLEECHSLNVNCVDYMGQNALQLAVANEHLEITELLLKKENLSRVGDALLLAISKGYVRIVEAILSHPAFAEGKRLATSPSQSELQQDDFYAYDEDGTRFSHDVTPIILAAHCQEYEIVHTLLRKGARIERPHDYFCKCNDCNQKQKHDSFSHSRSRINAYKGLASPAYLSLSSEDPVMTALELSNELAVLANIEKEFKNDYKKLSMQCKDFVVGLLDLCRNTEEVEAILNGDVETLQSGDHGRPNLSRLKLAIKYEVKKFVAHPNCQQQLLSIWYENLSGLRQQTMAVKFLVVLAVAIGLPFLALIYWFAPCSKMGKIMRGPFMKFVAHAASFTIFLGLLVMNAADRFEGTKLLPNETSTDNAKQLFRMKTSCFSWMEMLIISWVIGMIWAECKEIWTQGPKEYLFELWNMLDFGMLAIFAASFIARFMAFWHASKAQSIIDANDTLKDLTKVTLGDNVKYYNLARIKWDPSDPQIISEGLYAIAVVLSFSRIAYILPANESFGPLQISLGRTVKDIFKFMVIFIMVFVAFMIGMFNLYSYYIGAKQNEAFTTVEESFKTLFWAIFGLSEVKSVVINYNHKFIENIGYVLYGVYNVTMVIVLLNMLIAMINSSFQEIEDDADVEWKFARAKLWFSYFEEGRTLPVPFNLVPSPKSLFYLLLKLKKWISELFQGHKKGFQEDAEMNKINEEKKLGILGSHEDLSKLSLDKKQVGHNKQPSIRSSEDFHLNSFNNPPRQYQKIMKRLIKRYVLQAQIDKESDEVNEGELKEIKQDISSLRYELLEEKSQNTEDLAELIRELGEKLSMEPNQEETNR

[2] = biological target: T2, hTRPC4 (Homo sapiens, UniProt Q9UBN4); experiment: fura-2 intracellular calcium assay, S1P-activated hTRPC4 overexpressed in HEK T-REx cells
T2 construct: gene TRPC4
T2 sequence (Q9UBN4 1-977): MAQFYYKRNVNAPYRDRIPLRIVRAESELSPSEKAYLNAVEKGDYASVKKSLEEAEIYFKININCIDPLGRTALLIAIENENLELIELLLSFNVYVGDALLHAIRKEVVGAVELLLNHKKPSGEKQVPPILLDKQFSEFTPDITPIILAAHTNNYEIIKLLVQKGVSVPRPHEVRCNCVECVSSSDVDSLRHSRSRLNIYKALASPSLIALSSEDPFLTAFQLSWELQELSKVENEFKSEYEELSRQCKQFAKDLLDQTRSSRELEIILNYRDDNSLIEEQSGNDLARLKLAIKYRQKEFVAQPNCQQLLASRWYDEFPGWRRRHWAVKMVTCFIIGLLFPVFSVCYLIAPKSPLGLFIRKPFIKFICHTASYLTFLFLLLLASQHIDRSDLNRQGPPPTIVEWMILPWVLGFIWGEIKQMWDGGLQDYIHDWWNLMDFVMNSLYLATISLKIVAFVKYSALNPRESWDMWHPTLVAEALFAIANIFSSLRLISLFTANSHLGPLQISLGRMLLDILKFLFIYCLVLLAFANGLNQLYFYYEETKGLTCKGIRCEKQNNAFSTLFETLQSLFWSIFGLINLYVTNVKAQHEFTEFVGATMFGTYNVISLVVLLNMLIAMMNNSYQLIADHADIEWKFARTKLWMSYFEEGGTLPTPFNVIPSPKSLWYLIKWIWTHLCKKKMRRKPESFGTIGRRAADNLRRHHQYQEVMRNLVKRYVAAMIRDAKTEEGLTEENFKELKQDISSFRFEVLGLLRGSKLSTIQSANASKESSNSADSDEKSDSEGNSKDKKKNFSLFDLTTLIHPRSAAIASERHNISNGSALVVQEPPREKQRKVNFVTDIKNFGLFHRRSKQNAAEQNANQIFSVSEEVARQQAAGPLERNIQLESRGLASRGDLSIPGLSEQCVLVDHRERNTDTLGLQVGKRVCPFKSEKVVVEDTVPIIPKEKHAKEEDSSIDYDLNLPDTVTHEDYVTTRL

[3] = biological target: T3, hTRPC3 (Homo sapiens, UniProt Q13507); experiment: fura-2 intracellular calcium assay, OAG-activated hTRPC3 overexpressed in HEK T-REx cells
T3 construct: gene TRPC3
T3 sequence (Q13507 1-921): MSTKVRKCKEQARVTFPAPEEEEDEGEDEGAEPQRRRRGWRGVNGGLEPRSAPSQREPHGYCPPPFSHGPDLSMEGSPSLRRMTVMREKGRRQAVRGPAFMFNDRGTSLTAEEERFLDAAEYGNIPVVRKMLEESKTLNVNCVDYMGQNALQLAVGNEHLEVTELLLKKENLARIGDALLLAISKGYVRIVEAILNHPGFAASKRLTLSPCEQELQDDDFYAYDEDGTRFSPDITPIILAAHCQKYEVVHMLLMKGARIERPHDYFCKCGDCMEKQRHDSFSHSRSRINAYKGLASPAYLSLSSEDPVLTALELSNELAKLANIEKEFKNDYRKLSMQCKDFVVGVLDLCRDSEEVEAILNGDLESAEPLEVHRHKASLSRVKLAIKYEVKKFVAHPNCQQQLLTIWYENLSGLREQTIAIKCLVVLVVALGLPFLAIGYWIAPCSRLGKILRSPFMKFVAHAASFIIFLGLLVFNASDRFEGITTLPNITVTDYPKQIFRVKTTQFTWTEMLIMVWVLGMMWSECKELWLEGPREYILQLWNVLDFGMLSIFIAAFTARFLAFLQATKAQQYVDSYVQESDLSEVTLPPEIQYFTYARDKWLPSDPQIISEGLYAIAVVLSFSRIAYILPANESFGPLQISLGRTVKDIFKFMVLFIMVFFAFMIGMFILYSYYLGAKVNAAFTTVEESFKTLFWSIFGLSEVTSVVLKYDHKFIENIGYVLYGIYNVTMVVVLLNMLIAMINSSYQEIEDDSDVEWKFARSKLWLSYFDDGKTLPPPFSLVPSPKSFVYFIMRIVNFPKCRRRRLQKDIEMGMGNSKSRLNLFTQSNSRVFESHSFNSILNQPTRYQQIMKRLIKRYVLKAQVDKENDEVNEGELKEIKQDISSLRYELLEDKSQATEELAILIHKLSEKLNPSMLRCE

[4] = biological target: T4, hTRPC5 (Homo sapiens, UniProt Q9UL62); experiment: fura-2 intracellular calcium assay, S1P-activated hTRPC5 overexpressed in HEK T-REx cells
T4 construct: gene TRPC5
T4 sequence (Q9UL62 1-973): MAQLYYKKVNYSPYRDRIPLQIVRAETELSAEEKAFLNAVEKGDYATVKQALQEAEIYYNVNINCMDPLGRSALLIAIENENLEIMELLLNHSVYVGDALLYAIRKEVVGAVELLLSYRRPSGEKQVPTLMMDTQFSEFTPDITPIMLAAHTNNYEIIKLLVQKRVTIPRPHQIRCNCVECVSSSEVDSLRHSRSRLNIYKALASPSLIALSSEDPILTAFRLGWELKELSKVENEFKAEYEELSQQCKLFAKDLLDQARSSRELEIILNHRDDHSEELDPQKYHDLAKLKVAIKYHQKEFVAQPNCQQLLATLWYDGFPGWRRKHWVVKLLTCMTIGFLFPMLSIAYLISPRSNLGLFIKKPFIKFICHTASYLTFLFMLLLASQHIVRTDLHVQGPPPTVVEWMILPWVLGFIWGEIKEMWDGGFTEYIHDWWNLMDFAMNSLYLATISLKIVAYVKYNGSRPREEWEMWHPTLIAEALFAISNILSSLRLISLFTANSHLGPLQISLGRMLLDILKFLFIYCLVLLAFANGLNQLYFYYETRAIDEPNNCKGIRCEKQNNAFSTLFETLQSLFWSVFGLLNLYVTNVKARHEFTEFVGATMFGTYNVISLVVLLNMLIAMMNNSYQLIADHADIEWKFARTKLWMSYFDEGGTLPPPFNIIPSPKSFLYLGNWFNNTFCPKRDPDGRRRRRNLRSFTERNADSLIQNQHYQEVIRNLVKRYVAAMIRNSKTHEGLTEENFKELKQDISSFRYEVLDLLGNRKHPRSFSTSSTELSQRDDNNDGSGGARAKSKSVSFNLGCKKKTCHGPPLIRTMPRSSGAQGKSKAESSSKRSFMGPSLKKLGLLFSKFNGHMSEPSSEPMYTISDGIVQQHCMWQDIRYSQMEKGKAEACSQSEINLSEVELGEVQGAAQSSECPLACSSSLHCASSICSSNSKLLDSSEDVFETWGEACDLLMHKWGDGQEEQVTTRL
Source text: fura-2 intracellular calcium assay, S1P-activated hTRPC5 overexpressed in HEK T-REx cells on hTRPC5 | S1P‐evoked calcium influx mediated by hTRPC4 and hTRPC5 were inhibited by schwarzinicine A

IC50 [1]: 7 µM | IC50 [2]: 17 µM | IC50 [3]: 3 µM | IC50 [4]: 19 µM
SMILES: COc1ccc(CCNC(CCc2ccc(OC)c(OC)c2)Cc2ccc(OC)c(OC)c2)cc1OC (racemic) [schwarzinicine A, N‐(3,4‐dimethoxyphenethyl)‐1,4‐bis(3,4‐dimethoxyphenyl)butan‐2‐amine]

Reference: article PMC9544403, “Schwarzinicine A inhibits transient receptor potential canonical channels and exhibits overt vasorelaxation effects” (Phytotherapy Research, 2022)
